Measured values from PMC12088830 (Xenobiotica; the fate of foreign compounds in biological …, 2021).

Legend:
P-gp = experiment: Protein expression; format: cell-based, human; settings: 240 nM for six days
CYP2R1 [1] = experiment: Gene expression; settings: for CYP2R1 mRNA expression compared to normal serum + VEH: normal serum 24 h; for CYP2R1 mRNA expression relative to VEH + normal serum: uraemic serum 24 h
CYP24A1 [2] = experiment: Gene expression
SLCO4C1 = experiment: Gene expression; format: cell-based, human; settings: uraemic serum 24 h, then 240 nM for six days
ABCB1 = experiment: Gene expression; format: cell-based, human
CYP2R1 [3] = experiment: Protein expression; format: cell-based, human
P-gp and MRP4 = settings: Caco-2 cells; 3 day treatment, 100 nM; ref Maeng et al 2012; cited from earlier work
OATP4C1 = experiment: Protein expression; format: cell-based, human; settings: for Effect on OATP4C1 protein expression: normal serum
CYP24A1 [4] = settings: HepG2 cells; 4 nM dose; ref Horvath et al 2012; cited from earlier work
hPTECs = experiment: Viability assay; format: cell-based, human
in vitro = settings: human
[5] = normal serum 24 h, then 100 nM for six days
[6] = normal serum 24 h, then 240 nM for six days
[7] = uraemic serum 24 h, then 100 nM for six days

In the case of `C=C1/C(=C\C=C2/CCC[C@]3(C)[C@@H]([C@H](C)CCCC(C)(C)O)CC[C@@H]23)C[C@@H](O)C[C@@H]1O` [1,25-VitD3, calcitriol], the “Increase in P-gp protein expression with uraemic serum compared to the same treatment with normal serum” value (P-gp) is reported as 1.44 fold, the “CYP2R1 mRNA expression compared to normal serum + VEH” value (CYP2R1 [1]; then 240 nM for six days) is reported as 4.7 fold and the “CYP2R1 mRNA expression relative to VEH + normal serum” value (CYP2R1 [1]; then 100 nM for six days) is reported as 4.8 fold. The “CYP2R1 mRNA expression relative to VEH + normal serum” value (CYP2R1 [1]; then 240 nM for six days) was 4.0 fold, the “CYP24A1 mRNA expression compared to normal serum + VEH” value (CYP24A1 [2]; [5]) was 8706 fold and the “CYP24A1 mRNA expression compared to normal serum + VEH” value (CYP24A1 [2]; [6]) was 9483 fold. The “CYP24A1 mRNA expression compared to normal serum + VEH” value (CYP24A1 [2]; [7]) was 4967 fold, the “CYP24A1 mRNA expression compared to normal serum + VEH” value (CYP24A1 [2]; uraemic serum 24 h, then 240 nM for six days) was 5343 fold and the “SLCO4C1 mRNA expression compared to normal serum + VEH” value (SLCO4C1) was 3.3 fold. The “ABCB1 mRNA expression compared to normal serum + VEH” value (ABCB1; [5]) was 8.8 fold, the “ABCB1 mRNA expression compared to normal serum + VEH” value (ABCB1; [6]) was 7.6 fold and the “ABCB1 mRNA expression compared to normal serum + VEH” value (ABCB1; [7]) was 10 fold. For the same compound, the “Decrease in CYP2R1 protein expression under uraemic conditions compared to the same treatment with normal serum” value (CYP2R1 [3]; 100 nM for six days) was 38%, the “Decrease in CYP2R1 protein expression under uraemic conditions compared to the same treatment with normal serum” value (CYP2R1 [3]; 240 nM for six days) was 64% and the “Effect on P-gp and MRP4 transport activity (basolateral to apical transport of adefovir dipivoxil)” value (P-gp and MRP4) was “Increased P-gp and MRP4 transport activity”. For the same compound, the “Decrease in OATP4C1 protein expression relative to normal serum + VEH” value (OATP4C1; 240 nM for six days) was 54%, the “Effect on OATP4C1 protein expression” value (OATP4C1; 100 nM for six days) was “no effect” and the CYP24A1 expression increase (CYP24A1 [4]) was 5,300 fold. For the same compound, the “Effect on increasing cell viability relative to VEH” value (hPTECs; uraemic serum 24 h pre-treatment, then 100 nM and 240 nM for six days) was “no significant effects” and the “Effect on efflux ratio of [3H]digoxin” value (hPTEC monolayer; 240 nM for six days, normal or uraemic serum) was “did not have a significant effect”.
With `C=C1CC[C@H](O)C/C1=C/C=C1\CCC[C@]2(C)[C@@H]([C@H](C)CCCC(C)C)CC[C@@H]12` [VitD3, cholecalciferol] the “Increase in CYP2R1 mRNA expression under uraemic conditions compared to normal serum (same treatment)” value (CYP2R1 [1]; 100 nM for six days) was 45%, the “CYP2R1 mRNA expression compared to normal serum + VEH” value (CYP2R1 [1]; then 240 nM for six days) was 3.6 fold and the “CYP2R1 mRNA expression relative to VEH + normal serum” value (CYP2R1 [1]; then 100 nM for six days) was 3.1 fold. For the same compound, the “Effect on ABCB1 mRNA expression” value (ABCB1; 100 or 240 nM for six days, normal or uraemic serum) was “no effect”, the “Effect on OATP4C1 protein expression” value (OATP4C1; 240 nM for six days) was “no effect” and the “Effect on cell viability” value (hPTECs; normal or uraemic serum, 100 or 240 nM for six days) was “no significant effects”.
For `C[C@H]1O[C@@H](O[C@H]2[C@@H](O)C[C@H](O[C@H]3[C@@H](O)C[C@H](O[C@H]4CC[C@@]5(C)[C@H](CC[C@@H]6[C@@H]5C[C@@H](O)[C@]5(C)[C@@H](C7=CC(=O)OC7)CC[C@]65O)C4)O[C@@H]3C)O[C@@H]2C)C[C@H](O)[C@@H]1O` [[^3H]digoxin, digoxin], the Papp A→B at 33.5 μM (in vitro) was 3.9 ± 0.14 ×10⁻⁶ cm/s, the Papp A→B at 6 h, 33.5 μM (in vitro) was 4.1 ± 0.27 ×10⁻⁶ cm/s and the “Digoxin transport in the B→A direction” value (hPTEC monolayer; one hour post digoxin dosing, normal serum + VEH) was 29.9 ± 2.4%.
